# Assay results as given in article PMC5583328, “Probing the potential of mucus permeability to signify preterm birth risk” (Scientific Reports, 2017).
# Where a SMILES comes first, the peptide text is derived from it. The star is where a group is joined. 6FAM = O=C1OC2(c3ccc(O)cc3Oc3cc(O)ccc32)c2cc(C(=O)*)ccc21
# Test: Microfluidic peptide partitioning and transport through cervical mucus
# Format: in vitro ADME, human
# Conditions: for average maximum concentration of peptide accumulated inside mucus (enrichment at mucus-buffer interface): 15-min experiment; for average maximum concentration of peptide accumulated inside mucus (enrichment at mucus-buffer interface) / concentration of the peptide at the end of the channel (450 μm): mean (SD)
# Protocol: We quantified partitioning and transport of the reporter peptides through mucus using a previously described microfluidics device, [38]. With this setup, a continuous aqueous flow of fluorescent peptides is generated within a micron-scale channel at carefully controlled rates adjacent to a stable mucus layer. The small sample volume (5 μL) required for this system is ideally suited for the study of native mucus samples, which are typically not available in large volumes. The peptide solutes partition into the mucus layer, and their subsequent transport is monitored with fluorescence microscopy (Fig. 3a and b).
# We quantified the transport of (+) and (−) charged peptides in mucus from 20 ovulating, 15 low-risk pregnant, and 9 high-risk pregnant patients (Table 2; see the table caption for specific information on cohort composition). […] Peptides at a concentration of 4 μM were introduced into the microfluidic channel in the presence of the mucus sample or in the presence of buffer. […] Concentration profiles of the fluorescent peptides were acquired through the center cross - section of the mucus channel (Fig. 3a,b, Methods).
# Peptides were synthesized, purified, and identified by the Swanson Biotechnology Center at the Koch Institute at MIT (Cambridge, MA, USA). […] Peptides were purified using reverse-phase high performance liquid chromatography. […] Before use in the microfluidic device, peptides were dissolved in H7 buffer (20 mM HEPES, 20 mM NaCl, pH 7) at a final concentration of 4 μM.
# Microfluidic polydimethylsiloxane devices were designed and fabricated as previously described, [38], and cured at 95 °C for 48–72 h prior to use. Devices bonded to microscope slides were mounted on an inverted epifluorescence microscope (IX-71, Olympus American, Central Valley, PA; or Zeiss Observer Z1) equipped with a 5x or 10x objective and LED light source or mercury lamp (excitation at 450–495 nm or 475 nm, respectively). All channels were washed with H7 buffer before use. The two valves were closed or opened by applying or releasing pressure with a 3-mL syringe connected to the valves via polytetrafluoroethylene tubing. All experiments were carried out at room temperature. One to two microliters of sample were injected to fill the main channel. The two valves were closed while the inlet and outlet channels were washed with H7 buffer. The top valve was opened, exposing the mucus interface. Twenty-five microliters of peptide solution were added to the reservoir of each inlet. The flow rate of the peptide solution into the inlet channel was determined by gravitational flow. […] At least two successful experimental replicates were obtained for each patient mucus sample, except for one sample of cervical mucus, for which only one measurement was obtained.
# Images were analyzed using ImageJ (v1.47; Wayne Rasband, National Institutes of Health, Bethesda, MD, USA; http://imagej.nih.gov/ij) and MATLAB software.
Compound,"average maximum concentration of peptide accumulated inside mucus (enrichment at mucus-buffer interface) (mucus from high-risk pregnant patients (n = 9), microfluidic channel, 4 μM FAM-labelled peptide in H7 buffer pH 7, room temperature, epifluorescence read-out)","average maximum concentration of peptide accumulated inside mucus (enrichment at mucus-buffer interface) (mucus from low-risk pregnant women (n = 15), microfluidic channel, 4 μM FAM-labelled peptide in H7 buffer pH 7, room temperature, epifluorescence read-out)","average maximum concentration of peptide accumulated inside mucus (enrichment at mucus-buffer interface) (mucus from ovulating non-pregnant women (n = 20), microfluidic channel, 4 μM FAM-labelled peptide in H7 buffer (20 mM HEPES, 20 mM NaCl, pH 7), room temperature, epifluorescence read-out)","concentration of the peptide at the end of the channel (450 μm) (mucus from high-risk pregnant patients (n = 9), 4 μM FAM-labelled peptide in H7 buffer pH 7, room temperature, epifluorescence read-out)","retention (enrichment) of the peptide at the mucus barrier interface (mucus from high-risk pregnant patients (n = 9), microfluidic channel, 4 μM FAM-labelled peptide in H7 buffer pH 7, room temperature)","concentration of the peptide at the end of the channel (450 μm) (mucus from low-risk pregnant patients (n = 15), 4 μM FAM-labelled peptide in H7 buffer pH 7, room temperature, epifluorescence read-out)","peptide concentration gradient through the mucus layer compared with buffer (mucus from ovulating women (n = 20), microfluidic channel, 4 μM FAM-labelled peptide in H7 buffer pH 7, room temperature, epifluorescence read-out)"
C[C@H](NC(=O)c1ccc2c(c1)C1(OC2=O)c2ccc(O)cc2Oc2cc(O)ccc21)C(=O)N[C@@H](CCCCN)C(=O)N[C@@H](C)C(=O)N[C@@H](CCCCN)C(=O)N[C@@H](C)C(=O)N[C@@H](CCCCN)C(=O)N[C@@H](C)C(=O)N[C@@H](CCCCN)C(=O)N[C@@H](C)C(=O)N[C@@H](CCCCN)C(=O)N[C@@H](C)C(=O)N[C@@H](CCCCN)C(=O)N[C@@H](C)C(=O)N[C@@H](CCCCN)C(=O)N[C@@H](C)C(=O)N[C@@H](CCCCN)C(=O)N[C@@H](C)C(=O)N[C@@H](CCCCN)C(=O)N[C@@H](C)C(=O)N[C@@H](CCCCN)C(N)=O [(+) peptide] (6FAM-AKAKAKAKAKAKAKAKAKAK-NH2),19.3 µM,36.9 µM,10.6 µM,–,–,–,–
C[C@H](NC(=O)c1ccc2c(c1)C1(OC2=O)c2ccc(O)cc2Oc2cc(O)ccc21)C(=O)N[C@@H](CCC(=O)O)C(=O)N[C@@H](C)C(=O)N[C@@H](CCC(=O)O)C(=O)N[C@@H](C)C(=O)N[C@@H](CCC(=O)O)C(=O)N[C@@H](C)C(=O)N[C@@H](CCC(=O)O)C(=O)N[C@@H](C)C(=O)N[C@@H](CCC(=O)O)C(=O)N[C@@H](C)C(=O)N[C@@H](CCC(=O)O)C(=O)N[C@@H](C)C(=O)N[C@@H](CCC(=O)O)C(=O)N[C@@H](C)C(=O)N[C@@H](CCC(=O)O)C(=O)N[C@@H](C)C(=O)N[C@@H](CCC(=O)O)C(=O)N[C@@H](C)C(=O)N[C@@H](CCC(=O)O)C(N)=O [(−) peptide] (6FAM-AEAEAEAEAEAEAEAEAEAE-NH2),–,–,–,1100 nM,not detected in any of the high-risk samples,500 nM,nearly identical with or without mucus present
